The target of test [1] is T1, human enzyme NAMPT (full length) (Homo sapiens, UniProt P43490).
T1 construct: human enzyme NAMPT (full length)
In words: NMN fluorescence biochemical assay (stimulation of NMN synthesis by NAMPT). Conditions: for EC50: concentration giving half-maximal activation, read-out: Enzymatic EC50; for Enzymatic Emax: fold change of maximal activation compared to DMSO. The essentials:
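Full-length human NAMPT (100 nM) was preincubated 15 min at 37 °C with compound in 50 mM Tris-HCl pH 7.5, 10 mM MgCl2, 2 mM DTT, then reacted 1 h at 37 °C with 50 μM NAM, 100 μM PRPP, 4 mM ATP (stated solution concentrations). NMN was derivatised with acetophenone/KOH then formic acid and read at Ex/Em 382/445 nm; EC50 and Emax (fold over DMSO) reported.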

Test [2] has as its system endogenous NAMPT in U2OS cells. In words: Cellular NAD+ modulation assay (NAD/NADH-Glo, U2OS cells). It is filed as cell-based. Conditions: Homo sapiens; for maximal fold induction: read-out: Cellular Emax. The essentials: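 Endogenous NAMPT stimulation in U2OS cells treated with compound dilution series for 24 h at 37 °C. Cells lysed with DTAB base, acid-treated 15 min at 60 °C, neutralized, NAD+ read by NAD/NADH-Glo luminescence after 40 min at room temperature. EC50 and Emax (fold over DMSO) derived.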

Where [3] appears, read: NMN synthesis by purified human NAMPT (100 nM).
The mark [4] stands for this setting: 24 hours incubation with compound.
Setting [5] is: NMN fluorescence assay, purified human NAMPT 100 nM.
[6] abbreviates: 24 hours incubation, cellular NAD+.

Results on ten compounds are retold here after US20260078130A1, “NAMPT MODULATORS, PREPARATIONS, AND USES THEREOF” (SIRONAX LTD., priority 2022, published 2026).

The term EC50 denotes the concentration needed to bring the measured effect to its halfway point.

Like-named read-outs stand apart in the source and are kept apart here.

T1 sequence (P43490 whole entry): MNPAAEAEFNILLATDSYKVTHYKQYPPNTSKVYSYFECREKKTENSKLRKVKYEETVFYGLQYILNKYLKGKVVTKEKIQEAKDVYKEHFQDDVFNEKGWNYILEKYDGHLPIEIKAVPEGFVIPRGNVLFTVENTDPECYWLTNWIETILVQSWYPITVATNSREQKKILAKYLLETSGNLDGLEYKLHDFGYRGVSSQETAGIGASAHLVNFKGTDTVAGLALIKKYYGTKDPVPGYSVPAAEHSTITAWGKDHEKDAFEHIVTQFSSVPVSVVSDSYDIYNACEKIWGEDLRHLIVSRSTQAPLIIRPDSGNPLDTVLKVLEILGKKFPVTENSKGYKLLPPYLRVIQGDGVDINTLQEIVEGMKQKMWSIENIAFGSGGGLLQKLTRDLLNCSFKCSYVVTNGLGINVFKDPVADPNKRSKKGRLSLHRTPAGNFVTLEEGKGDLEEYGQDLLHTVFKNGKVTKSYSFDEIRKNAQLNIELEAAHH

`CC1c2ccccc2C(=O)N1Cc1cc(F)c2[nH]c(=O)oc2c1` (stereo not shown) [Compound 89, 4-fluoro-6-((1-methyl-3-oxoisoindolin-2-yl)methyl)benzo[d]oxazol-2(3H)-one]: in test [1] (setting [3]), the concentration for a half-maximal effect (EC50) is at least 5 µM. The “Enzymatic Emax” value in test [1] is listed as “B (3≥B>2)”. In test [2] (setting [4]), the EC50 is 5 to 50 µM and the maximal fold induction lay in the range of 1.2 to 1.5.
`Cc1c(CN2C(=O)c3ccccc3C2Cc2ncccc2Br)ccc2[nH]c(=O)oc12` (stereo not shown) [Compound 349, 6-((1-((3-bromopyridin-2-yl)methyl)-3-oxoisoindolin-2-yl)methyl)-7-methylbenzo[d]oxazol-2(3H)-one]: in test [1] (setting [5]), the EC50 was in the range of 0.5 to 5 µM. The “Enzymatic Emax” value in test [1] is on record as “A (A>3)”. Moreover, in test [2] (setting [6]), the EC50 was in the range of 5 to 50 µM and the maximal fold induction was over 1.5.
In the case of `O=c1c2ccccc2ccn1Cc1ccc2[nH]nnc2c1` [Compound 7, 2-((1H-benzo[d][1,2,3]triazol-5-yl)methyl)isoquinolin-1(2H)-one], in test [1] (setting [3]), the EC50 is at least 5 µM. The “Enzymatic Emax” value in test [1] is on record as “B (3≥B>2)”. In test [2] (setting [4]), the EC50 is 5 to 50 µM and the maximal fold induction is 1.2 to 1.5.
For `O=C1NCC2(CC(CN3C(=O)c4ccccc4C3Cc3ncccc3Br)C2)O1` (stereo not shown) [Compound 270, 2-((1-((3-bromopyridin-2-yl)methyl)-3-oxoisoindolin-2-yl)methyl)-5-oxa-7-azaspiro[3.4]octan-6-one], the EC50 in test [1] (setting [3]) was under 0.5 µM. In addition, the “Enzymatic Emax” value in test [1] is recorded as “A (A>3)”. In test [2] (setting [4]), the EC50 was under 0.5 µM and the maximal fold induction is 1.2 to 1.5.
With `Cn1c2ccccc2c(=O)n1Cc1ccc(O)cc1` [Compound 23, 2-(4-hydroxybenzyl)-1-methyl-1,2-dihydro-3H-indazol-3-one], the half-maximal effective concentration (EC50) in test [1] (setting [3]) was at least 5 µM. Further, the “Enzymatic Emax” value in test [1] is “A (A>3)”. In addition, in test [2] (setting [4]), the EC50 is 0.5 to 5 µM and the maximal fold induction was over 1.5.
In the case of `O=C1c2ccccc2C(Cc2nnc(Cl)cc2Cl)N1Cc1ccc2[nH]c(=O)oc2c1` (stereo not shown) [Compound 227, 6-((1-((4,6-dichloropyridazin-3-yl)methyl)-3-oxoisoindolin-2-yl)methyl)benzo[d]oxazol-2(3H)-one], the EC50 in test [1] (setting [3]) and in test [2] (setting [4]) was 0.5 to 5 µM throughout. Besides, the “Enzymatic Emax” value in test [1] is listed as “A (A>3)”. The maximal fold induction in test [2] (setting [4]) is over 1.5.
Regarding `O=C1c2ccccc2C(Cc2ncccc2Br)N1CCc1cn[nH]c1` (stereo not shown) [Compound 475, 2-(2-(1H-pyrazol-4-yl)ethyl)-3-((3-bromopyridin-2-yl)methyl)isoindolin-1-one], the EC50 in test [1] (setting [5]) was in the range of 0.5 to 5 µM. For the same compound, the “Enzymatic Emax” value in test [1] was “C (2≥C)”. Also, in test [2] (setting [6]), the EC50 lay in the range of 0.5 to 5 µM and the maximal fold induction lay in the range of 1.2 to 1.5.
On to `Cn1ncc(Cl)c1CC1c2ccccc2C(=O)N1CC1CC2(CNC(=O)S2)C1` (stereo not shown) [Compound 568, 2-((1-((4-chloro-1-methyl-1H-pyrazol-5-yl)methyl)-3-oxoisoindolin-2-yl)methyl)-5-thia-7-azaspiro[3.4]octan-6-one], for which the EC50 in test [1] (setting [5]) is under 0.5 µM. Further, the “Enzymatic Emax” value in test [1] was “B (3≥B>2)”. In test [2] (setting [6]), the 50% effective concentration (EC50) is under 0.5 µM and the maximal fold induction is 1.2 to 1.5.
Turning to `O=C1c2ccccc2C(Cc2ncccc2Br)N1Cc1cc2nn[nH]c2cc1F` (stereo not shown) [Compound 271, 3-((3-bromopyridin-2-yl)methyl)-2-((6-fluoro-1H-benzo[d][1,2,3]triazol-5-yl)methyl) isoindolin-1-one], the EC50 in test [1] (setting [3]) was in the range of 0.5 to 5 µM. Besides, the “Enzymatic Emax” value in test [1] is listed as “A (A>3)”. Also, in test [2] (setting [4]), the EC50 is 0.5 to 5 µM and the maximal fold induction was over 1.5.
As to `COc1ncc(CN2C(=O)c3ccccc3C2Cc2c(Cl)cnn2C)s1` (stereo not shown) [Compound 591, 3-((4-chloro-1-methyl-1H-pyrazol-5-yl)methyl)-2-((2-methoxythiazol-5-yl)methyl)isoindolin-1-one], in test [1] (setting [5]), the EC50 was at least 5 µM. Besides, the “Enzymatic Emax” value in test [1] is “B (3≥B>2)”. In test [2] (setting [6]), the EC50 lay within 0.5 to 5 µM and the maximal fold induction lay within 1.2 to 1.5.
